{"source": "patent US8378104B2", "about": "(OSI Pharmaceuticals, LLC, priority 2010, dated 2013)", "target": "T1, TAK1-TAB1 fusion protein (Homo sapiens, UniProt O43318)", "T1 construct": "purchased Carna", "T1 sequence (O43318 with tags, fused parts or gaps limits assumed)": "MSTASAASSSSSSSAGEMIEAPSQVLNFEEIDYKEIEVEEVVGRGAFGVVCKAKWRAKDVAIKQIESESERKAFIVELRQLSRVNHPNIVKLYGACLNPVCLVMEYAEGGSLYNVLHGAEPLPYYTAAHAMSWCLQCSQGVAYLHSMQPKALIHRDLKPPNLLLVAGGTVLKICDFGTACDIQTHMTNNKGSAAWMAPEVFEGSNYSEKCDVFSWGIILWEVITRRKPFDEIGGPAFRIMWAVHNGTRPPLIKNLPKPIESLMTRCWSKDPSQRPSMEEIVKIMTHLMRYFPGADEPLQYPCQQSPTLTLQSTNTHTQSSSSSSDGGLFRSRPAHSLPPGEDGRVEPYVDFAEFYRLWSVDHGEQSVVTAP", "experiment": "TAK1 biochemical assay (AlphaScreen, GST-MAP2K7 substrate)", "details": "TAK1-TAB1 fusion protein, GST-MAP2K7 substrate; read-out: mean TAK1 IC50 (Col. A)", "note": "Where a name gives a salt, the structure may show the parent alone."}
{"smiles": "Cc1ncc(-c2cnc(N)c3oc(-c4csc5cnccc45)cc23)n1C", "note": "[Example 397, 4-(2,3-dimethyl-3H-imidazol-4-yl)-2-thieno[2,3-c]pyridin-3-yl-furo[2,3-c]pyridin-7-ylamine]", "values": [{"measurement": "IC50", "value": "1 to 10", "unit": "µM"}]}
{"smiles": "CCOC(=O)COc1cccc(-c2cc3c(-c4cnn(C5CCN(C(C)=O)CC5)c4)cnc(N)c3o2)c1", "note": "[Example 211, ethyl (3-{4-[1-(1-acetylpiperidin-4-yl)-1H-pyrazol-4-yl]-7-aminofuro[2,3-c]pyridin-2-yl}phenoxy)acetate]", "values": [{"measurement": "IC50", "value": "> 10", "unit": "µM"}]}
{"smiles": "CC(=O)N1CCC(n2cc(-c3cnc(N)c4oc(-c5cnc6ccccc6c5)cc34)cn2)CC1", "note": "[Example 168, 1-(4-{4-[7-amino-2-(quinolin-3-yl)furo[2,3-c]pyridin-4-yl]-1H-pyrazol-1-yl}piperidin-1-yl)ethanone]", "values": [{"measurement": "IC50", "value": "1 to 10", "unit": "µM"}]}
{"smiles": "CC(=O)N1CCC(n2cc(-c3cnc(N)c4oc(-c5cccc6ccoc56)cc34)cn2)CC1", "note": "[Example 196, 1-(4-{4-[7-amino-2-(1-benzofuran-7-yl)furo[2,3-c]pyridin-4-yl]-1H-pyrazol-1-yl}piperidin-1-yl)ethanone]", "values": [{"measurement": "IC50", "value": "> 10", "unit": "µM"}]}
{"smiles": "CC(=O)N1CCC(n2cc(-c3cnc(N)c4oc(-c5c(-c6ccccc6)sc6cnccc56)cc34)cn2)CC1", "note": "[Example 263, 1-(4-{4-[7-amino-2-(2-phenylthieno[2,3-c]pyridin-3-yl)furo[2,3-c]pyridin-4-yl]-1H-pyrazol-1-yl}piperidin-1-yl)ethanone trifluoroacetate]", "values": [{"measurement": "IC50", "value": "0.1 to 1", "unit": "µM"}]}
{"smiles": "Nc1ncc(-c2cnn(C3CCNCC3)c2)c2cc(-c3ccc4[nH]c(=O)[nH]c4c3)oc12", "note": "[Example 25, 5-{7-amino-4-[1-(piperidin-4-yl)-1H-pyrazol-4-yl]furo[2,3-c]pyridine-2-yl}-1,3-dihydro-2H-benzimidazol-2-one]", "values": [{"measurement": "IC50", "value": "1 to 10", "unit": "µM"}]}
{"smiles": "CC(=O)N1CCC(n2cc(-c3cnc(N)c4oc(-c5cccc6ccncc56)cc34)cn2)CC1", "note": "[Example 190, 1-(4-{4-[7-amino-2-(isoquinolin-8-yl)furo[2,3-c]pyridin-4-yl]-1H-pyrazol-1-yl}piperidin-1-yl)ethanone]", "values": [{"measurement": "IC50", "value": "1 to 10", "unit": "µM"}]}
{"smiles": "Nc1ncc(-c2cnn([C@H]3CC[C@H](O)CC3)c2)c2cc(-c3c(F)ccc4ncsc34)oc12", "note": "[Example 359, trans-4-{4-[7-amino-2-(6-fluoro-1,3-benzothiazol-7-yl)furo[2,3-c]pyridin-4-yl]-1H-pyrazol-1-yl}cyclohexanol]", "values": [{"measurement": "IC50", "value": "1 to 10", "unit": "µM"}]}
{"smiles": "CC(=O)N1CCC(n2cc(-c3cnc(N)c4oc(-c5cccc(OCc6ccccc6Cl)c5)cc34)cn2)CC1", "note": "[Example 166, 1-{4-[4-(7-amino-2-{3-[(2-chlorobenzyl)oxy]phenyl}furo[2,3-c]pyridin-4-yl)-1H-pyrazol-1-yl]piperidin-1-yl}ethanone]", "values": [{"measurement": "IC50", "value": "> 10", "unit": "µM"}]}
{"smiles": "CC(=O)N1CCC(n2cc(-c3cnc(N)c4oc(-c5ccc6c(c5)NC(=O)C6)cc34)cn2)CC1", "note": "[Example 144, 6-{4-[1-(1-acetylpiperidin-4-yl)-1H-pyrazol-4-yl]-7-aminofuro[2,3-c]pyridin-2-yl}-1,3-dihydro-2H-indol-2-one]", "values": [{"measurement": "IC50", "value": "1 to 10", "unit": "µM"}]}
{"smiles": "Nc1ncc(-c2cnn(C3CCNCC3)c2)c2cc(-c3cccc4ccccc34)oc12", "note": "[Example 3, 2-(naphthalen-1-yl)-4-[1-(piperidin-4-yl)-1H-pyrazol-4-yl]furo[2,3-c]pyridin-7-amine]", "values": [{"measurement": "IC50", "value": "1 to 10", "unit": "µM"}]}
{"smiles": "CC(=O)N1CCC(n2cc(-c3cnc(N)c4oc(-c5ccc(CO)cc5)cc34)cn2)CC1", "note": "[Example 184, 1-[4-(4-{7-amino-2-[4-(hydroxymethyl)phenyl]furo[2,3-c]pyridin-4-yl}-1H-pyrazol-1-yl)piperidin-1-yl]ethanone]", "values": [{"measurement": "IC50", "value": "1 to 10", "unit": "µM"}]}
{"smiles": "Cn1ncc2cccc(-c3cc4c(-c5cnn([C@H]6CC[C@H](O)CC6)c5)cnc(N)c4o3)c21", "note": "[Example 357, trans-4-{4-[7-amino-2-(1-methyl-1H-indazol-7-yl)furo[2,3-c]pyridin-4-yl]-1H-pyrazol-1-yl}cyclohexanol]", "values": [{"measurement": "IC50", "value": "1 to 10", "unit": "µM"}]}
